{
  "source": "patent US8101159B2",
  "about": "“In vivo methods of identifying compounds which target suppressed cancer cells” (The Board of Regents of the University of Oklahoma, priority 2005, dated 2012)",
  "key": {"[1]": {"test_system": "suppressed cancer cells", "experiment": "Library screen and dose-response, cells on normal matrix vs cells on plastic", "assay_type": "cell-based", "details": "FIGS. 3A, 3B, 6A-6C", "protocol": "Screening of compounds. The National Cancer Institute Developmental Therapeutics Program (NCI DTP) diversity set of 1990 compounds1 was obtained by material transfer agreement and was diluted to a final concentration of 166.7 μM in serum-containing media and placed onto cells for 72 hours at 37° C. and 5% CO2. A marker of cell proliferation using the substrate 5-carboxyfluorescein diacetate acetoxymethyl ester (CFDA-AM) cleaved to fluorescein by non-specific cellular esterases was used. Briefly, media containing a final concentration of 5 μM CFDA-AM (Molecular Probes, Eugene, Oreg.) was added in PBS for two h at 37° C. Plates were then read by a FLUOstar Optima plate reader (BMG LABTECH, Durham, N.C.) using 385 nm excitation, 428 nm emission filter.\n(§1) Dose-response relations of lead compounds. To 100 μl media on cells was added 100 μl of a 2× (666.7 μM) stock of either doxorubicin, tetrandrine or o-cresolphthalein in completed media in a single column in a 96-well plate. 1:3 dilutions were made from this highest dose by removing 66.7 μl into the next column of cells containing 133 μl media. Cells were incubated with drug for 72 hours, then the CFDA-AM assay completed as described above.\nDrug screening. The percent inhibition of cell proliferation (as determined by CFDA-AM cleavage) as compared to untreated cells was calculated for each drug in the wells of plates. The ratio of percent inhibition of the same drug of cells grown on SISgel as compared to non-confluent monolayers also was calculated. All library compounds were screened twice for consistency.\n(§2) Dose-response relations. Data were graphed as percent inhibition of proliferation as compared to untreated cells and from this EC50 values calculated using sigmoidal dose-response non-linear regression analysis (GraphPad Prism 4.0 software, San Diego, Calif.). Dose-response relation data were compared to one another using two-way ANOVA with Bonferroni post-test (GraphPad Prism 4.0 software, San Diego, Calif.).\nSISgel (90 μl) is added to wells of a 96-well plate and allowed to gel. Cancer cells in 50 μl of nutrient (such as, for example, J82 bladder cancer cell, RT4 cancer cells, TCCSUP cancer cells, 5637 cancer cells, MDA-MB-468 breast cancer cells, or B16-F10 skin tumor (or any metastatic murine melanoma)) are added to each well and allowed to attach and grow. After 24 hours, the test compounds are added to wells at 10 μM concentration. The cells are allowed to grow in the presence of the test compound for 24 hours, at which time the number of cells (or survival or mortality) are estimated by a fluorometric method. In one embodiment, the fluorometric method is an assay performed using an esterase substrate, 5-carboxyfluorescein diacetate acetoxymethyl ester (CFDA) (available from Molecular Probes, Eugene, Oreg., USA), however, any suitable assay for measuring cell survival or mortality known by those of ordinary skill in the art may be used. Examples of fluorometers which can be used include, but are not limited to, FLUOStar Optima plate reader (BMG Biotech), FL600 fluorescent plate reader (Bio-Tek Instruments), Victor2 plate reader (Wallac), FluoroCount BF10000 fluorescent microplate reader (Packard), CytoFluor® 4000 (Applied Biosystems), Bio-Tek Synergy, BMG FLUOstar Galaxy and OPTIMA, PerkinElmer Victor™, PerkinElmer HTS 7000, TECAN SpectraFluor Plus, Thermo LabSystems Fluoroskan Ascent, and the like.\nThe cell number results are compared to those observed in cells grown conventionally on plastic in nearly confluent monolayers that show approximately the same growth rate as the cells on SISgel. […] In other embodiments, the ratio used may be, for example, less than two fold or greater than two fold as long as the cell number or survival on non-suppressing cell support matrix is greater than the number of cells on the suppressing cell support matrix. Preferably, each positive result is then confirmed by a full dose-response curve. […]"}, "[2]": {"test_system": "MDA-MB-468 cells", "experiment": "Complete dose response, cells in SISgel vs monolayers or Matrigel", "assay_type": "cell-based", "details": "FIGS. 8A-8B", "protocol": "as §1, §2\n(§3) SISgel (90 μl) is added to wells of a 96-well plate and allowed to gel. […] Examples of fluorometers which can be used include, but are not limited to, FLUOStar Optima plate reader (BMG Biotech), FL600 fluorescent plate reader (Bio-Tek Instruments), Victor2 plate reader (Wallac), FluoroCount BF10000 fluorescent microplate reader (Packard), CytoFluor® 4000 (Applied Biosystems), Bio-Tek Synergy, BMG FLUOstar Galaxy and OPTIMA, PerkinElmer Victor™, PerkinElmer HTS 7000, TECAN SpectraFluor Plus, Thermo LabSystems Fluoroskan Ascent, and the like. […]"}, "[3]": {"test_system": "B16-F10 cells", "experiment": "Complete dose response, cells in SISgel vs monolayers or Matrigel", "assay_type": "cell-based, murine", "details": "FIGS. 9A-9B", "protocol": "as §1, §2, §3"}, "[4]": {"test_system": "J82 metastatic bladder cancer cells", "experiment": "In vivo flank xenograft, GFP-tagged cells co-injected with suppressive SISgel", "details": "nude mice, 35 mg/kg Monday, Wednesday and Friday from day 8", "protocol": "Flank xenograft model. J82 cells stably expressing green fluorescent protein (GFP) were prepared as follows. pLEGFP-C1 retrovirus (Clontech, Mountain View, Calif.) was co-transfected with the pVSV-G vector (Clontech, Mountain View, Calif.) which contains a viral envelope gene into the packaging cell line GP2-293 (Clontech, Mountain View, Calif.). Supernatant from the packaging cells containing the infective virus was collected every 24 hours for 4 days. Fluorescent target cells were made by infecting J82s, a urothelial transitional cell carcinoma cell line (ATCC, Manassas, Va.), with 1 ml of fresh, virus containing, supernatant/well containing 100,000 target cells along with 8 μg/ml of polybrene (Sigma Aldrich, St. Louis, Mo.). Each application of viral supernatant was filtered through a 0.4 μM syringe filter before application to target cells. Supernatant was removed and fresh virus containing media replenished on target cells every 24 hours until 4 changes of media were completed. […]\n(§4) In sterile 500 μl centrifuge tubes, placed on ice, 100 μl of cell suspension was mixed with either 100 μl ice-cold prepared SISgel or ice-cold Matrigel and mixed well. […] The area and intensity of the tumor was measured using Adobe Photoshop by first selecting the tumor area, then counting pixels above a threshold selected to eliminate background, non-tumor areas. The integrated intensity was calculated by multiplying the average intensity of detected pixels by the number of pixels detected.\n(§5) In this experiment, the activities of three compounds identified by the in vitro screening method were compared against both ECM-suppressed (SISgel, right) and actively growing (Matrigel, left) J82 metastatic bladder cancer cells. […] When tumors were first visible fluorescently (8 days after implantation), 35 mg/kg Bordeaux Red, tetrabromofluorescein, or Wool Violet 2R were injected Monday, Wednesday and Friday and tumor size was measured using fluorescence microscopy. A representative time course of fluorescence imaging is shown from a single animal for each treatment group. […]"}, "[5]": {"test_system": "J82 metastatic bladder cancer cells", "experiment": "In vivo flank xenograft, GFP-tagged cells co-injected with permissive Matrigel", "details": "nude mice; for activity against actively growing cells in vivo (fluorescence imaging): 35 mg/kg Monday, Wednesday and Friday from day 8", "protocol": "Flank xenograft model. J82 cells stably expressing green fluorescent protein (GFP) were prepared as follows. pLEGFP-C1 retrovirus (Clontech, Mountain View, Calif.) was co-transfected with the pVSV-G vector (Clontech, Mountain View, Calif.) which contains a viral envelope gene into the packaging cell line GP2-293 (Clontech, Mountain View, Calif.). Supernatant from the packaging cells containing the infective virus was collected every 24 hours for 4 days. Fluorescent target cells were made by infecting J82s, a urothelial transitional cell carcinoma cell line (ATCC, Manassas, Va.), with 1 ml of fresh, virus containing, supernatant/well containing 100,000 target cells along with 8 μg/ml of polybrene (Sigma Aldrich, St. Louis, Mo.). Each application of viral supernatant was filtered through a 0.4 μM syringe filter before application to target cells. Supernatant was removed and fresh virus containing media replenished on target cells every 24 hours until 4 changes of media were completed. Virus containing media was replaced with Minimum Essential Media, MEM, (Life Technologies, Carlsbad, Calif.) containing 1% nonessential amino acids, 1% L-glutamine, 1% sodium pyruvate and 10% Fetal Calf Serum, and cells were allowed to grow to 90% confluence. Stable transfects were selected through sequential sorting and enrichment of fluorescent cells using flow cytometry.\nas §4, with “well. The mix was immediately injected into either the right or left flank of a 5-week old nude mouse, nu/nu-nuBR, (Charles River Laboratories, Wilmington, Mass.). Caliper measurements of tumor size were taken every week for the length of the study as were fluorescent images.” for “well.”\nas §5"}, "[6]": {"test_system": "J82 cells", "experiment": "Cell proliferation dose-response (CFDA-AM), cells on SISgel vs non-confluent monolayers", "assay_type": "cell-based", "protocol": "Plating of cells for screening. Three-dimensional gel cultures with Matrigel were made by layering 50 μl of ice cold Matrigel into wells of a Costar 3610 white, clear bottom 96-well plates (Corning, Corning, N.Y.) allowed to gel at 37° C. Confluent cells were trypsinized with 1 ml 0.25% trypsin −1 mM EDTA, and 30,000 were added to wells containing the gelled matrices. The cells were fed with 50 μl of their respective media containing 10% fetal calf serum. To establish non-confluent monolayers, cells were plated at a cell density of 10,000/well 24 hours prior to drug treatments.\nScreening of compounds. […] Plates were then read by a FLUOstar Optima plate reader (BMG LABTECH, Durham, N.C.) using 385 nm excitation, 428 nm emission filter. […]\nDrug screening. The percent inhibition of cell proliferation (as determined by CFDA-AM cleavage) as compared to untreated cells was calculated for each drug in the wells of plates. The ratio of percent inhibition of the same drug of cells grown on SISgel as compared to non-confluent monolayers also was calculated. […]\nDose-response relations. Data were graphed as percent inhibition of proliferation as compared to untreated cells and from this EC50 values calculated using sigmoidal dose-response non-linear regression analysis (GraphPad Prism 4.0 software, San Diego, Calif.). […]"}},
  "data": [
    {"compound": "O=C1OC2(c3ccc(O)cc3Oc3cc(O)ccc32)c2c(Br)c(Br)c(Br)c(Br)c21", "note": "[3,4,5,6-tetrabromofluorescein]", "values": [
      {"measurement": "sensitivity of cells on normal matrix compared with cells grown on plastic", "setting": "[1]", "value": "several fold increased sensitivity"},
      {"measurement": "EC50 of cells grown in SISgel compared with monolayers or Matrigel", "setting": "[2]", "value": "lower EC50 values"},
      {"measurement": "EC50 of cells grown in SISgel compared with monolayers or Matrigel", "setting": "[3]", "value": "lower EC50 values"},
      {"measurement": "effect on ECM-suppressed cells in vivo (fluorescence imaging)", "setting": "[4]", "value": "caused disappearance of the cells"},
      {"measurement": "rate of tumor growth in Matrigel treated animals compared with controls", "setting": "[5]; 35 mg/kg", "value": "weak inhibition of tumor growth"},
      {"measurement": "activity against actively growing cells in vivo (fluorescence imaging)", "setting": "[5]", "value": "none of the three compounds had any activity"}
    ]},
    {"compound": "O=S(=O)([O-])c1ccc2c(N=Nc3cccc4ccccc34)c(O)c(S(=O)(=O)[O-])cc2c1.[Na+].[Na+]", "note": "[Bordeaux Red]", "values": [
      {"measurement": "sensitivity of cells on normal matrix compared with cells grown on plastic", "setting": "[1]", "value": "several fold increased sensitivity"},
      {"measurement": "EC50 of cells grown in SISgel compared with monolayers or Matrigel", "setting": "[2]", "value": "lower EC50 values"},
      {"measurement": "EC50 of cells grown in SISgel compared with monolayers or Matrigel", "setting": "[3]", "value": "lower EC50 values"},
      {"measurement": "effect on ECM-suppressed cells in vivo (fluorescence imaging)", "setting": "[4]", "value": "caused disappearance of the cells"},
      {"measurement": "activity against actively growing cells in vivo (fluorescence imaging)", "setting": "[5]", "value": "none of the three compounds had any activity"}
    ]},
    {"compound": "CC(C)=CCC(OC(=O)C=C(C)C)C1=CC(=O)c2c(O)ccc(O)c2C1=O", "note": "(stereo not drawn) [NSC140377]", "values": [
      {"measurement": "sensitivity of cells on normal matrix compared with cells grown on plastic", "setting": "[1]", "value": "several fold increased sensitivity"}
    ]},
    {"compound": "Cc1cc(C)c(NC(=O)/C=C/c2ccccc2)c(C)c1", "note": "[NSC 191384]", "values": [
      {"measurement": "activity against cancer cells under suppressing conditions compared with non-suppressing cell culture (dose-response, FIG. 2)", "setting": "[6]", "value": "more active against cancer cells grown under the suppressing conditions"},
      {"measurement": "sensitivity of cells on normal matrix compared with cells grown on plastic", "setting": "[1]", "value": "several fold increased sensitivity"}
    ]},
    {"compound": "CC1=C(N2CC2)C(=O)C(CO)=C(N2CC2)C1=O", "note": "[NSC 697726]", "values": [
      {"measurement": "sensitivity of cells on normal matrix compared with cells grown on plastic", "setting": "[1]", "value": "several fold increased sensitivity"}
    ]},
    {"compound": "Wool Violet 2R", "values": [
      {"measurement": "sensitivity of cells on normal matrix compared with cells grown on plastic", "setting": "[1]", "value": "several fold increased sensitivity"},
      {"measurement": "effect on ECM-suppressed cells in vivo (fluorescence imaging)", "setting": "[4]", "value": "caused disappearance of the cells"},
      {"measurement": "activity against actively growing cells in vivo (fluorescence imaging)", "setting": "[5]", "value": "none of the three compounds had any activity"}
    ]}
  ]
}
